Results reported in patent US20250092001A1, “NOVEL EXCITATORY AMINO ACID GLUTAMATE TRANSPORT MODULATORS AND METHODS USING THE SAME” (Drexel University, priority 2022, published 2025).
Read-outs that look alike come from different tables or passages of the source. Each block holds one compound with its values, some of them ahead of it.

Legend:
[1] = tested on: R6/2 mice (Huntington disease model); experiment: Open field locomotion test; assay type: in vivo, mouse; conditions: 200 mg/kg, versus wild-type treated with vehicle
Procedure: FIG. 9A depicts the results of a locomotion test. In the locomotion test of FIG. 9A, wildtype and R6/2 mice treated with vehicle or different doses of GTS467 (2, 4, and 10 mg/kg) or ceftriaxone (200 mg/kg) were subjected to the open field test to evaluate their locomotor abilities in a 44×44 cm and 43×43 cm square open field arena. Animals were placed individually in the open field arena and behavior was recorded for a period of 5 minutes under dim light and low noise conditions. Animal behavior was recorded using an overhead camera and the distance moved was recorded and quantified using the Noldus ethovision XT-14 software. FIG. 9B depicts the results of a memory task test. Referring to FIG. 9B, to test for memory impairment a novel object recognition assay was performed. A 44×44 cm square shaped open field arena was used to perform this test at week 12 and week 15. The behavioral evaluation was performed in 2 sets, each set having equal number of animals. […] The behavior was recorded under dim light and low noise conditions using an overhead camera. Cumulative duration with both the objects, total object exploration (sec), distance travelled (cm) was quantified using the Noldus ethovision XT 14 software. […]

[2] = tested on: R6/2 mice (Huntington disease model); experiment: Novel object recognition assay; assay type: in vivo, mouse; conditions: 200 mg/kg, versus wild-type treated with vehicle
Procedure: Referring to FIG. 9B, to test for memory impairment a novel object recognition assay was performed. A 44×44 cm square shaped open field arena was used to perform this test at week 12 and week 15. The behavioral evaluation was performed in 2 sets, each set having equal number of animals. The animals were subjected to habituation a day prior to the commencement of test for 5 min followed by familiarization with similar objects for 10 min and tested with different objects for 10 min on the following day. The behavior was recorded under dim light and low noise conditions using an overhead camera. Cumulative duration with both the objects, total object exploration (sec), distance travelled (cm) was quantified using the Noldus ethovision XT 14 software.

[3] = Pharmacokinetics of GT467 and GT511 in rats, plasma and brain (IV, IP, PO); assay type: in vivo, rat; conditions: for AUC0-t: 0 to 24 hrs
Procedure: Pharmacokinetics (PK) study for GT951 was conducted at Melior Discovery Services (Exton, PA). Fifteen male CD-1 mice 23-50 g was used for the study and the mice were housed 3 per cage. PK studies for GT467 and GT511 were conducted at Piramal Pharma solutions under approved protocols (Pune, India). One hundred and sixty-eight male Wistar rats were used for the study and housed 4 per cage. All animals were maintained on a standard 12 h light cycle and given free access to water and standard rodent chow. Food and water were available ad libitum. Animals were not fasted for any portion of the study and animals were acclimated to the animal care facility for seven days prior to the start of the experiment. The holding room and procedure room temperature was 21-23° C. and humidity was at 40-45% during the experiment (within the normal range of the care facility). All procedures were completed according to Institutional Animal Care and Use Committee (IACUC) approved protocols for housing and for PK studies.
Rats were dosed with the drug and blood and brain samples were collected at 0.5, 1, 2, 4, 8 and 24 h time points. Blood was collected via the sub-lingual vein under anesthesia into tubes containing Na2EDTA as an anticoagulant. Plasma fraction was separated by centrifuging the samples at 10,000 rpm for 5 min and the plasma was transferred to a cryo tube and stored at −80 C. Animals were euthanized and the brain was rapidly removed on ice and weighed. Brain was homogenized in Milli Q water and the homogenate was stored at −80 C until further use. Bioanalysis of the samples was performed using the SCIEX QTRAP 5500 LCMS/MS system with Phenomenex synergy C18 column and carbamazepine as internal standard. A methanol extraction procedure was used to precipitate the proteins in the sample. In addition to the internal standards, drug free plasma and brain samples were prepared for calibration and quantification standards. All samples were within the detectable range of the standard curves. 50 μl of the sample was added to 200 μl of the working solution of the internal standard and centrifuged for 5 min at 10,000 rpm. 60 μl of the supernatant was added to 140 μl of water and mixed well prior to transferring them for quantitative analysis on LCMS.
Specifically, rats were administered with GT467 or GT511 intraperitoneally (IP), intravenously (IV) or orally (PO). The concentration of the administered compounds measured at various timepoints in the plasma are depicted in FIGS. 4A and 4B, the concentrations of the administered compounds measured at various timepoints in the brain are depicted in FIGS. 5A and 5B.
Furthermore, pharmacokinetic parameters such as the peak concentration (Cmax), the time to reach the peak concentration (Tmax), the area under curve from time 0 to T (i.e., 24 hrs) (AUC0-t), the area under curve from time 0 to infinite (AUC0-∞), the half-life (t1/2), the oral clearance (CL/F), the volume of distribution of drug observed (Vz_F_obs), and the percentage of bioavailability (% Bioavailability) were also measured or calculated.

[4] = tested on: Drosophila model of Huntington's Disease (Htt model); experiment: Larval locomotion assay in Drosophila Huntington's disease model; assay type: in vivo; conditions: third instar larvae; concentrations as low as two-fold below EC50 and one-fold below EC50
Description: FIG. 6A illustrate certain aspects of a locomotion assay used to assay the locomotive activities. […] FIGS. 6B and 6C depict the results of the locomotion assay results of wild-type Drosophila (“WT”), as well as Drosophila of a Huntington's disease model treated with vehicle (“Veh”) or with various concentrations of two exemplary GLT-1 modulators. […] The Drosophila Htt model is produced by crossing UAS-Htt([…]) male flies with elav-Gal4 virgin female flies. Both fly strains were purchased from Bloomington Drosophila Stock Center (BDSC, Indiana, USA). […] Locomotion assays were conducted by transferring the third instar larvae of flies to agar plates (FIG. 6A) and counting the number of grid lines crossed in 30 seconds.

[5] = tested on: Drosophila model of Huntington's disease; experiment: Larval olfactory associative learning test; assay type: in vivo; conditions: Elav x Htt larvae; 3.53 nM GT467, […] GT511
Procedure: FIG. 7A illustrates certain aspects of a larval olfactory associative learning used to test learning and memory. In FIG. 7A, larvae were trained with either a reinforcer solution containing sucrose (“LIN/SUC”) or a control of distilled water (“LIN/DW”). The trained larvae were then transferred to a dish having test odorant placed on one side and a control on the opposite side. […] The ΔRI (difference between LIN/SUC and LIN/DW performance scores) were then calculated for the high performers (FIG. 7B), low performers (FIG. 7C) and non-performers (FIG. 7D). […] Referring to FIG. 7A, Drosophila larvae were trained with either a reinforcer solution containing sucrose (“LIN/SUC”) or a control of distilled water (“LIN/DW”). The trained larvae were then transferred to a dish having test odorant placed on one side and a control on the opposite side. The ΔRI were then calculated for the high performers (FIG. 7B), low performers (FIG. 7C) and non-performers (FIG. 7D).

[6] = tested on: Drosophila model of Huntington's disease; experiment: Longevity assay; assay type: in vivo; conditions: Huntington's disease model flies; up to about day 40
Procedure: The longevity assay was performed according to Romero et al., Neuron, 57(1), 27-40 and Linford et al., JoVE (Journal of Visualized Experiments), (71). Briefly, 100 adult flies from wild type and HTT phenotype (male and female) were collected in each designated tube and fed with food containing the specific concentration of drug. Every 2-3 days the flies were moved into new vials with fresh food and drug. Dead flies were removed and the number of flies alive during each change is noted. The tunes were maintained until the last available fly and the data was plotted as a survival curve. FIG. 8A illustrates certain aspects of a longevity assay. FIG. 8B depicts the results of the longevity assay. […] The survival rates of the flies were recorded over time.

[7] = male, Wistar, rat plasma, IP 10 mg/kg
[8] = male, Wistar, rat plasma, IV 5 mg/kg
[9] = male, Wistar, rat plasma, PO 10 mg/kg

SMILES: CO/N=C(\C(=O)N[C@@H]1C(=O)N2C(C(=O)O)=C(CSc3nc(=O)c(=O)[nH]n3C)CS[C@H]12)c1csc(N)n1 [ceftriaxone, (6R,7R)-7-{[(2Z)-2-(2-amino-1,3-thiazol-4-yl)->2-(methoxyimino)acetyl]amino}-3-{[(2-methyl-5,6-dioxo-1,2,5,6-tetrahydro-1,2,4-triazin-3-yl)thio]methyl}-8-oxo-5-thia-1-azabicyclo[4.2.0]oct-2-ene-2-carboxylic acid, reference compound]
Distance moved [1]: move significantly shorter distances
Recognition index [2]: scored significantly lower in recognition index

AUC(0-inf) [3, 7]: 1130 ng·h/mL
Cmax [3, 7]: 450 ng/mL
AUC0-t ([3]; male, Wistar, rat plasma, IP 10 mg/kg, read-out: AUC0-t): 1070 ng·h/mL
CL/F ([3]; male, Wistar, rat plasma, IP 10 mg/kg, read-out: CL/F (converted)): 149 mL/min/kg
AUC(0-inf) [3, 8]: 995 ng·h/mL
Cmax [3, 8]: 567 ng/mL
AUC0-t ([3]; male, Wistar, rat plasma, IV 5 mg/kg, read-out: AUC0-t): 919 ng·h/mL
AUC(0-inf) [3, 9]: 399 ng·h/mL
Cmax [3, 9]: 42.9 ng/mL
AUC0-t ([3]; male, Wistar, rat plasma, PO 10 mg/kg, read-out: AUC0-t): 322 ng·h/mL
CL/F ([3]; male, Wistar, rat plasma, PO 10 mg/kg, read-out: CL/F (converted)): 505 mL/min/kg
AUC0-∞ ([3]; rat brain, IP 10 mg/kg): 467.11 ng·h/g
Tmax ([3]; rat brain, IP 10 mg/kg): 30 min
t1/2 ([3]; rat brain, IP 10 mg/kg): 2.26 h
AUC0-t ([3]; rat brain, IP 10 mg/kg): 429.85 ng·h/g
AUC0-∞ ([3]; rat brain, IV 5 mg/kg): 483.13 ng·h/g
Tmax ([3]; rat brain, IV 5 mg/kg): 30 min
t1/2 ([3]; rat brain, IV 5 mg/kg): 1.52 h
AUC0-t ([3]; rat brain, IV 5 mg/kg): 443.23 ng·h/g
Tmax ([3]; rat brain, PO 10 mg/kg): 82.8 min
AUC0-t ([3]; rat brain, PO 10 mg/kg): 183.00 ng·h/g
% Bioavailability ([3]; rat plasma, IP 10 mg/kg): 58.36%
Tmax ([3]; rat plasma, IP 10 mg/kg): 37.8 min
Vz_F_obs ([3]; rat plasma, IP 10 mg/kg): 79221.20 mL/kg
t1/2 ([3]; rat plasma, IP 10 mg/kg): 6.22 h
CL/F ([3]; rat plasma, IV 5 mg/kg): 86.3097 mL/min/kg
Tmax ([3]; rat plasma, IV 5 mg/kg): 30 min
Vz_F_obs ([3]; rat plasma, IV 5 mg/kg): 41463.89 mL/kg
t1/2 ([3]; rat plasma, IV 5 mg/kg): 6.08 h
% Bioavailability ([3]; rat plasma, PO 10 mg/kg): 17.51%
Tmax ([3]; rat plasma, PO 10 mg/kg): 195 min
Vz_F_obs ([3]; rat plasma, PO 10 mg/kg): 198882.89 mL/kg
t1/2 ([3]; rat plasma, PO 10 mg/kg): 5.34 h
SMILES: COc1ccc(NC(=O)C(=O)N2CCN(c3ccccc3)CC2)cc1 [GT511, N-(4-methoxyphenyl)-2-oxo-2-(4-phenylpiperazin-1-yl)acetamide]
Plasma concentration and brain concentration by route of administration ([3]; rats, IP, IV, PO): higher plasma concentration and brain concentration than oral administration
Locomotor ability (grid lines crossed in 30 seconds) [4]: restores the Huntington's disease model flies' locomotor ability
Olfactory learning performance (ΔRI) [5]: improved significantly
Survival rate [6]: significantly improved the survival rate
